Assay results published in patent publication US20080139387A1, “Fungicidal Mixtures” (BASF Aktiengesellschaft, priority 2004, published 2008).

Test system: Cochliobolus miyabeanus
Assay: Activity against brown spot of rice caused by Cochliobolus miyabeanus, protective application
Type: in vivo
Details: individual active compound, rice seedlings, rated after six days
Experimental: The active compounds, separately or jointly, were prepared as a stock solution comprising 0.25% by weight of active compound in acetone or DMSO. 1% by weight of the emulsifier Uniperol® EL (wetting agent having emulsifying and dispersing action based on ethoxylated alkylphenols) was added to this solution, and the mixture was appropriately diluted with water to the desired concentration.
Use example—Activity against brown spot of rice caused by Cochliobolus miyabeanus, protective application Leaves of rice seedlings of the cultivar “Tai-Nong 67” which had been grown in pots were sprayed to runoff point with an aqueous suspension having the concentration of active compound stated below. The next day, the plants were inoculated with an aqueous spore suspension of Cochliobolus miyabeanus. The test plants were then placed in climatized chambers at 22-24° C. and 95-99% relative atmospheric humidity for six days. The extent of the development of infection on the leaves was then determined visually.
Evaluation is carried out by determining the infected leaf areas in percent. These percentages were converted into efficacies.
The efficacy (E) is calculated as follows using Abbot's formula: […]
α corresponds to the fungal infection of the treated plants in % and β corresponds to the fungal infection of the untreated (control) plants in % An efficacy of 0 means that the infection level of the treated plants corresponds to that of the untreated control plants; an efficacy of 100 means that the treated plants are not infected.
The expected efficacies of the mixtures of active compounds are determined using Colby's formula [R. S. Colby, Weeds, 15, 20-22 (1967)] and are compared with the observed efficacies.
E expected efficacy, expressed in % of the untreated control, when using the mixture of the active compounds A and B at the concentrations a and b x efficacy, expressed in % of the untreated control, when using active compound A at the concentration a y efficacy, expressed in % of the untreated control, when using active compound B at the concentration b

## CC1CCN(c2c(-c3c(F)cc(F)cc3F)c(Cl)nc3ncnn23)CC1 [I, 5-chloro-7-(4-methylpiperidin-1-yl)-6-(2,4,6-trifluorophenyl)-[1,2,4]tri-azolo[1,5-a]pyrimidine]
4 ppm in the spray liquor
  Efficacy in % of the untreated control: 32%

## CCCCCCCCCCCCCN1CC(C)OC(C)C1 (stereo not shown) [II (tridemorph), tridemorph]
1 ppm in the spray liquor
  Efficacy in % of the untreated control: 0%
4 ppm in the spray liquor
  Efficacy in % of the untreated control: 0%
16 ppm in the spray liquor
  Efficacy in % of the untreated control: 9%
